From patent US20070275100A1, “Use of gaseous nitric oxide as an anti-cancer agent” (priority 1998, published 2007)
“And” between values parts separate entries of the source, which are not always exact repeats. Equal values may be shown once.

Tests used:
[1] = test system: A549-epithelial lung carcinoma cells; assay: MTS proliferation assay, A549 cells under continuous gNO exposure (Example 1); format: cell-based, human; details: for Corrected Average: blank subtracted; for survivability: 24 hours continuous exposure, compared to air (control)
Experimental: (gNO) 200 ppm and 350 ppm compared to air (control) on the survival of a representative line of cancer cells. Cancer cell lines (A549-epithelial lung carcinoma cells and H460-epithelial metastatic; large cell lung cancer cells) were prepared in F12 medium and suspended in six 96-well plates (3 treatment and 3 controls). […] The plates then were removed and cell viability assessed by an MTS proliferation assay.
When exposed to 350 ppm of gNO, however, cancer cell survival rates decrease dramatically.

NCI-H23 = assay: MTS cell proliferation assay, 25,000 ppm gNO (Example 4), NCI-H23; format: cell-based, human
Source text: (§1) The purpose of this example is to illustrate the tumorcidal activity of high-dosage gNO. We examined the cellular sensitivity to 25,000 ppm of gNO on 5 non-small cell lung cancer (NSCLC) cells lines by an MTS cell proliferation assay.
(§2) Human lung cancer cell lines A549, NCI-H23, NCI-H460, HTB-58, H2170, and H441 (commercially available from American Type Culture Collection (“ATCC”), Manassas, Va.) were maintained in culture medium recommended by ATCC. All media were supplemented with 1% penicillin/streptomycin and 10% fetal bovine serum (commercially available from Invitrogen Gibco-BRL, Burlington, Ontario, Canada). […]
(§3) After 24 hours, the A549, NCI-H23, NCI-H460, HTB-58, H2170 and H441 cells were treated with 25,000 ppm gNO or air (control) for 1 minute, 3 minutes, 6 minutes, 9 minutes, 10 minutes, 20 minutes, and 30 minutes. Immediately following treatment, the viability of the cells was determined using a colorimetric MTS (3-(4,5-dimethylthiazol-2-yl)-5-(3-carboxymethoxyphenyl)-2-(4-sulfophenyl)-2H-tetrazolium, inner salt) cell proliferation assay (commercially available as the CellTiter 960 Aqueous One Solution Cell Proliferation Assay (MTS) from Promega, Madison, Wis., USA) according to the manufacturer's protocol. […] Absorbance was measured at 490 nm for each well using a micro-plate reader (commercially available from Dynex Technologies, Chantilly, Va., USA). […]

NCI-H460 = assay: MTS cell proliferation assay, 25,000 ppm gNO (Example 4), NCI-H460; format: cell-based, human
Source text: as §1, §2, §3

H441 = assay: MTS cell proliferation assay, 25,000 ppm gNO (Example 4), H441; format: cell-based, human
Source text: as §1, §2, §3

[2] = test system: normal human endothelial lung vascular cells (NHVE); assay: Viability under 25,000 ppm gNO (Example 5), NHVE; format: cell-based
Experimental: (§4) After 24 hours, the A549, NCI-H23, NCI-H460, HTB-58, H2170 and H441 cells were treated with 25,000 ppm gNO or air (control) for 1 minute, 3 minutes, 6 minutes, 9 minutes, 10 minutes, 20 minutes, and 30 minutes. Immediately following treatment, the viability of the cells was determined using a colorimetric MTS (3-(4,5-dimethylthiazol-2-yl)-5-(3-carboxymethoxyphenyl)-2-(4-sulfophenyl)-2H-tetrazolium, inner salt) cell proliferation assay (commercially available as the CellTiter 960 Aqueous One Solution Cell Proliferation Assay (MTS) from Promega, Madison, Wis., USA) according to the manufacturer's protocol. Briefly, […] of MTS solution was added to each well and the cells were incubated for 2 hours at 37° C. Absorbance was measured at 490 nm for each well using a micro-plate reader (commercially available from Dynex Technologies, Chantilly, Va., USA). The relative percentage of cell survival (viability) was calculated by dividing the absorbance of treated cells by that of control cells for each experimental time point.
(§5) The purpose of this example is to illustrate the effects on normal human cell lines compared to the effects on cancerous cell lines of high-dosage gNO. The above study was repeated. […]

[3] = test system: normal human fibroblast cells (NHLF); assay: Viability under 25,000 ppm gNO (Example 5), NHLF; format: cell-based
Experimental: as §4, §5

[4] = test system: squamous lung cancer cells (H2170); assay: Viability under 25,000 ppm gNO (Example 5), H2170; format: cell-based; details: Homo sapiens, NCI-H2170, 0.1 h, after 6 minutes, FIG. 8 D
Experimental: as §4, §5

[5] = test system: extra cellular M. tuberculosis; assay: Exposure of extracellular M. tuberculosis to NO; format: cell-based; details: exogenous NO
Source text: Further, it may be inferred that the large population of extracellular bacilli in patients with cavitary pulmonary tuberculosis are also vulnerable to exogenous (inhaled) NO.

[6] = 200 ppm NO, 1 hour, F12 medium, listed as NO
[7] = 200 ppm NO, 1 hour, HBSS medium
[8] = 200 ppm NO, 2.5 hours, F12 medium
[9] = 200 ppm NO, 2.5 hours, F12 medium, listed as NO
[10] = 200 ppm NO, 2.5 hours, HBSS medium
[11] = 200 ppm NO, 3.5 hours, F12 medium
[12] = 200 ppm NO, 3.5 hours, F12 medium, listed as NO
[13] = 200 ppm NO, 3.5 hours, HBSS medium
[14] = 350 ppm NO, 2 hours, F12 medium
[15] = 350 ppm NO, 2 hours, F12 medium, listed as NO

In the case of `[N]=O` [gNO, nitric oxide], the Average ([1]; 200 ppm NO, 1 hour, F12 medium) is reported as 0.852, the Survival ([1]; 200 ppm NO, 1 hour, F12 medium) is reported as “up to 92%” and the “Corrected Average” value ([1]; 200 ppm NO, 1 hour, F12 medium) is reported as 0.621. The “MTS assay reading, individual wells” value [1, 6] was 0.842 and 0.955 and 0.793 and 0.818 and 0.828 and 0.78 and 0.805 and 0.936 and 0.959 and 0.91 and 0.827 and 0.8 and 0.795 and 0.759 and 0.945 and 0.886, the Survival [1, 6] was 92% and the Average [1, 7] was 0.06. For the same molecule, the “MTS assay reading, individual wells” value [1, 7] was 0.062 (2×) and 0.058 (2×) and 0.057 (2×) and 0.056 (2×) and 0.06 (3×) and 0.067 (2×) and 0.059 and 0.055, the Survival [1, 7] was 0% and the “Corrected Average” value [1, 7] was 0. The Average [1, 8] was 1.276, the Survival [1, 8] was “up to 90%” and the “Corrected Average” value [1, 8] was 0.918. The “MTS assay reading, individual wells” value [1, 9] was 1.261 and 1.178 and 1.33 and 1.422 and 1.454 and 1.458 and 1.354 and 1.105 and 1.348 and 1.082 and 1.329 and 1.237 and 1.272 and 0.995 and 1.284 and 1.299, the Survival [1, 9] was 90% and the Average [1, 10] was 0.06. The “MTS assay reading, individual wells” value [1, 10] was 0.063 and 0.059 (3×) and 0.058 (2×) and 0.061 and 0.06 (2×) and 0.069 (2×) and 0.057 (2×) and 0.056 and 0.062, the Survival [1, 10] was 0% and the “Corrected Average” value [1, 10] was 0. The Average [1, 11] was 1.529, the Survival [1, 11] was “up to 87%” and the “Corrected Average” value [1, 11] was 1.059. For the same molecule, the “MTS assay reading, individual wells” value [1, 12] was 1.587 and 1.525 and 1.665 and 1.444 and 1.642 and 1.332 and 1.639 and 1.551 and 1.567 and 1.863 and 1.335 and 1.325 and 1.575 and 1.227 and 1.561 and 1.625, the Survival [1, 12] was 87% and the Average [1, 13] was 0.061. The “MTS assay reading, individual wells” value [1, 13] was 0.063 (2×) and 0.059 (3×) and 0.058 (3×) and 0.061 (2×) and 0.06 and 0.069 and 0.057 and 0.056 and 0.07, the Survival [1, 13] was 0% and the “Corrected Average” value [1, 13] was 0. For the same molecule, the survivability ([1]; 200 ppm gNO) was “greater than 90%”, the Average [1, 14] was 0.110 and the Survival [1, 14] was “about 2%”. For the same molecule, the “Corrected Average” value [1, 14] was 0.009, the “MTS assay reading, individual wells” value [1, 15] was 0.104 and 0.115 and 0.106 (2×) and 0.110 and 0.116 and 0.119 and the Survival [1, 15] was 1%. For the same molecule, the survivability ([1]; 350 ppm gNO) was 1%, the “IC50 (exposure time)” value (NCI-H23) was “about 6 minutes” and the viability at 25000 ppm (NCI-H23; Homo sapiens, NCI-H23, 0.15 h, at 9 minutes) was about 24%. The “IC50 (exposure time)” value (NCI-H460) was “about 7 minutes”, the “IC50 (exposure time)” value (H441) was “about 7 minutes” and the viability at 25000 ppm (H441; Homo sapiens, NCI-H441, 0.15 h, at 9 minutes) was about 17%. The “killing of normal endothelial cells” value ([2]; 6 minutes) was “rapidly killed”, the viability ([2]; after 6 minutes, FIG. 8 B) was “less than 10%” and the viability ([3]; after 6 minutes, FIG. 8 C) was “about 30%”. The “viability of normal lung fibroblasts” value ([3]; after 15 minutes of exposure) was 30%, the viability at 25000 ppm [4] was under 10% and the mycobacteriocidal action [5] was “powerful dose-dependent and time-dependent mycobacteriocidal action”.
